Measurements reported in publication PMC9569450, “Dual Effect of Tryptamine on Prostate Cancer Cell Growth Regulation: A Pilot Study” (International Journal of Molecular Sciences, 2022).

How the values were obtained:
HepG2 cells = test: MTT cell proliferation assay, HepG2; type: cell-based; conditions: Homo sapiens, HepG2, 48 h treatment in FBS-free medium, read-out: IC50 Value (Mean ± SD mM) HepG2
Method: PC-3, LNCaP, RWPE-1, HepG2, A549, and PANC-1 cells were purchased from the National Collection of Authenticated Cell Cultures (Shanghai, China). […] All the above cell cultures were supplied with 10% fetal bovine serum and 1% penicillin-streptomycin. RWPE-1 cells were cultured in keratinocyte serum-free medium (K-SFM, Gibco, New York, NY, USA) supplemented with 50 mg/L bovine pituitary extract and 5 μg/L epidermal growth factor (EGF). All cell lines were grown in a humidified atmosphere of 5% CO2 at 37 °C.
Cells were seeded in 100 μL complete medium in a 96-well plate, at a density of 10,000 cells/well for LNCaP and 5000 cells/well for other cells. Cells were pre-incubated for 24 h to allow for adherence before removal of complete medium and treatment with various concentrations of compounds in fetal bovine serum (FBS)-free medium for 48 h. After treatment, 20 μL/well MTT (5 mg/mL) was added and incubated for 3–4 h at 37 °C, and then 100 μL/well DMSO was added for MTT assay. The plate was shaken on an orbital shaker for 10 min. Absorbance was measured using a microplate reader at 492 nm for the MTT assay (performed in triplicates). Cell viability was normalized to control. Half inhibitory concentration (IC50) was calculated by SPSS Statistics 17.0. […] The experiments were independently repeated two to three times.

[1] = test system: PC-3, LNCaP, RWPE-1, A549, PANC-1, and HepG2 cells; test: MTT cell proliferation assay, all cell lines; type: cell-based; conditions: all cell lines tested; read-out: IC50 values for all six cell lines tested
Method: PC-3, LNCaP, RWPE-1, HepG2, A549, and PANC-1 cells were purchased from the National Collection of Authenticated Cell Cultures (Shanghai, China). PC-3 and A549 cells were cultured in F-12K Nutrient Mixture (Gibco, New York, NY, USA), LNCaP in RPMI 1640 (Gibco, New York, NY, USA), PANC-1 in Dulbecco’s Modified Eagle Medium (DMEM, Gibco, New York, NY, USA), and HepG2 in minimal essential medium (MEM, Gibco, New York, NY, USA). All the above cell cultures were supplied with 10% fetal bovine serum and 1% penicillin-streptomycin. RWPE-1 cells were cultured in keratinocyte serum-free medium (K-SFM, Gibco, New York, NY, USA) supplemented with 50 mg/L bovine pituitary extract and 5 μg/L epidermal growth factor (EGF). All cell lines were grown in a humidified atmosphere of 5% CO2 at 37 °C.
Cells were seeded in 100 μL complete medium in a 96-well plate, at a density of 10,000 cells/well for LNCaP and 5000 cells/well for other cells. Cells were pre-incubated for 24 h to allow for adherence before removal of complete medium and treatment with various concentrations of compounds in fetal bovine serum (FBS)-free medium for 48 h. After treatment, 20 μL/well MTT (5 mg/mL) was added and incubated for 3–4 h at 37 °C, and then 100 μL/well DMSO was added for MTT assay. The plate was shaken on an orbital shaker for 10 min. Absorbance was measured using a microplate reader at 492 nm for the MTT assay (performed in triplicates). Cell viability was normalized to control. Half inhibitory concentration (IC50) was calculated by SPSS Statistics 17.0. The combination index (CI) isobologram equation was used for the quantitative determination of the interaction between two compounds [62]:(1) Combination index CI =CA,x/ICx,A+CB,x/ICx,B where CA,x and CB,x are compound concentrations that […], and ICx,A and ICx,B are compound concentrations that provide the same effect when being used in combination. The experiments were independently repeated two to three times.

PC-3 cells = test: UPLC-HRMS cell metabolomics of tryptamine-treated PC-3 cells; type: cell-based, human
Method: The cells were seeded in 10 cm Petri dishes at a density of 1 × 10^6 cells/dish. After incubation overnight for adherence, cells were subjected to treatment with tryptamine (0.3 mM) in FBS-free medium, and control samples were treated with FBS-free medium. […] For cellular metabolite extraction, cells were first washed with PBS for three times, then 8 mL extraction solvent (methanol: acetonitrile: 0.5 M formic acid, 2:2:1 v/v/v) was added for quenching and cell lysis. The mixture was vortexed and sonicated on ice for 15 min to extract metabolites, and then centrifuged at 13,000 rpm for 10 min at 4 °C. The supernatant was collected and dried under vacuum. Before analysis, the sample was reconstituted in 100 μL H2O.
The chromatographic method involved elution with water with 0.1% acetic acid (A) and acetonitrile (B). The gradient program of cell metabolomics was as follows: 0–1 min 98–99% A, 1–3 min 2–30% A, 3–8 min 30–50% A, 8–10 min 50–95% A, 10–15 min 95–95% A. The flow rate was constant at 0.3 mL/min. […] The column was maintained at 35 °C. After each run, the gradient was re-equilibrated to its initial conditions over 6 min. Sample injection volume was 10 μL. The main mass spectrometer parameters were set as follows: capillary temperature 300 °C; capillary voltage and tube lens 20 V and 35 V, respectively, for positive mode, and 40 V and 80 V, respectively, for negative mode; spray voltage 4.0 kV in positive mode, and 2.5 kV and 2.8 kV in negative mode for serum and cell metabolite profiling, respectively; auxiliary gas, sheath gas and sweep gas flow rate 10, 40, and 0 arbitrary units, respectively. Data were acquired in the m/z range of 50–1000. The resolving power was 60,000 at m/z 195. Ultra-high-purity argon (≥99.999%) was used as the collision gas in UPLC–MS/MS experiments, and normalized collision voltages were in the range of 15–55 V.
Raw data was pre-processed using Progenesis QI software version 2.4 (Nonlinear Dynamics, Waters Corporation, Milford, CT, USA), which included peak picking and alignment. A data matrix table containing metabolic peak identity (retention time (Rt and m/z pair)) and peak abundances in samples was obtained. We used our previously designed FORTRAN program for data post-processing, including analyses of adducts, in-source fragments and chloride isotopic ions, contaminant and artefact ion removal, QC-based scaling, and normalization. Principal components analysis (PCA) and oPLS-DA (orthogonal partial least squares-discriminant analysis) were applied for sample classification using the PLS Toolbox software (version 8.9.1, Eigenvector Research, Inc., Manson, WA, USA) based on Matlab R2021a (version 9.10.0, MathWorks, Natick, MA, USA). Differential metabolites were identified with p-value < 0.05 and variance importance in projection (VIP) value greater than 1. The metabolites were identified based on accurate mass matching to theoretical values within a 2 mDa tolerance and MS/MS matching with spectral data in Human Metabolome Database (HMDB) and/or manual analysis of MS/MS spectra (Figure S4). MetaboAnalyst 5.0 was used for metabolic pathway and network analyses.

[2] = 0.3 mM, treatment/control ratio, negative = decreased

## NCCc1c[nH]c2ccccc12 [Tryptamine]
HepG2 cells
  IC50: 0.35 ± 0.02 mM
[1]
  IC50: ≤ 900 µM
PC-3 cells; 0.3 mM, treatment/control ratio
  Fold Change of ketoleucine: 0
PC-3 cells; [2]
  Fold Change of arginine: −1.9
  Fold Change of aspartic acid: −3.2
  Fold Change of creatine: −2.0
  Fold Change of pantothenic acid: −1.6
  Fold Change of proline: −2.0
  Fold Change of spermidine: −2.1
  Fold Change of spermine: −2.1
PC-3 cells; 0.3 mM, treatment/control ratio, positive = increased
  Fold Change of 5-HT: 1.4 × 10^3
PC-3 cells; tryptamine treated group
  aspartic acid, fold decrease compared to the control group: 3.2 fold
